Laboratory results published in patent EP1353939B1, “TETRAPEPTIDE REGULATING PROSTATE FUNCTIONS AND ITS COMPOSITIONS AND USES” (Sankt-Peterburgskaya Obschestvennaya Organizatsia …, priority 2001, dated 2004).
Like-named read-outs stand apart in the source and are kept apart here. Marks after values point to notes of the source that are not given here.

Tests used:
[1] = test system: chronic bacterial prostatitis
Method: The investigation was performed on 41 white mongrel male rats weighing on average 230 g. Bacterial prostatitis was induced in the rats by transurethral introduction of enterotoxigenic E.coli suspension K-2935 (01: K1: H-). A glycerine-lubricated catheter was inserted into the animals' urethra under a light ether narcosis after treating the external urethra opening with 70 % alcohol. 0.2 ml of bacterial suspension (10^9 colony-forming units per ml) was instilled via catheter with a syringe. Control animals were injected with 0.2 ml of 0.9 % natural saline solution through the catheter. […] The injections were performed daily for 10 days. The control groups included intact animals, animals with untreated chronic prostatitis and those treated with injections of 0.9 % natural saline solution applied by the same plan.
All the rats were euthanasised by decapitation on the 70th day of the experiment. The animals were subjected to complete autopsy. Their testes and epididymes, prostate, seminal vesicles, bulbourethral glands, urinary bladder, kidneys with ureters and other intrinsic organs were examined. For histology the ventral segment of the prostate was fixed in 10 % neutral formalin and - after a standard processing with a series of solvents - embedded in paraffin. 5-7-µm thin tissue sections were stained with haematoxylin-eosin.
The degree of prostatitis manifestation throughout the groups was assessed according to the below 5-point scale: • 1 point - traces of prostatitis (small foci of fibrosis, interstitial lymphocytic and histiocytic infiltration); • 2 points - foci of chronic prostatitis with inflammatory infiltration (basically, interstitial one) occupying less than ¼ of the gland section; • 3 points - prostatitis foci with large inflammatory infiltrates surrounding the ducts, acini and blood vessels, with leukocytic conglomerations in the glandular lumens, embracing ¼ - ½ of the gland section; • 4 points - expressed prostatitis covering ½ - ¾ of the gland section; • 5 points - strongly expressed prostatitis affecting over ¾ of the gland section.
The prostate sites were also used for electron microscopic examination and tests on the content of zinc, which makes a part of compositions with anti-microbial activity.

[2] = test system: processes of free radical oxidation; settings: 0.1 µg per injection s.c. for 10 days
Method: The animals were subcutaneously administered with 0.1 µg of the tetrapeptide per injection for 10 days. The controls were similarly injected with 0.9 % natural saline solution. The rats were euthanasised on the next day after the last introduction of the tetrapeptide.
Afterwards, samples of the brain and liver tissues and blood serum were prepared and peroxide lipid oxidation (PLO) intensity in them was studied by the content of diene conjugates and Schiff's bases. The activity of glutathione peroxidase and superoxide dismutase was defined as well by the method of suppressing nitroblue tetrasolium oxidation with biological material.

[3] = test system: urinary bladder explants; settings: 20 ng/ml, third day of cultivation
Method: The experiments were carried out in 45 urinary bladder fragments of 10-11-days old chicken embryos. The nutrient medium for the explant cultivation included 35 % of Eagle's solution, 25 % of foetal calf serum, 35 % of Hanks' solution, 5 % of chicken embryonic extract and was added glucose (0.6 %), insulin (0.5 unit/ml), penicillin (100 unit/ml) and glutamine (2 mM). The urinary bladder fragments were placed in this medium and cultivated in Petri's dishes in a thermostat at 36.7°C for 48 hours. […] Square index (SI) was taken for a biological activity criterion and calculated as a correlation of the total explant square (including the growth zone) to the initial square of a urinary bladder fragment. The SI values were expressed per cent, the control SI value - taken for 100 %.

Question: What does the source list for “lysyl-glutamyl-aspartyl-proline [Lys-Glu-Asp-Pro tetrapeptide]”?
Answer: positive dynamics of inflammatory processes in the prostate ([1]; 0.1 µg per injection s.c. daily for 10 days): 7 cases out of 11; Degree of prostatitis in points Per rat in the group ([1]; 0.1 µg per injection s.c. daily for 10 days, from day 45 after infection, 5-point scale): 1.81 ± 0.09 points; Degree of prostatitis in points Per prostatitis-affected rat ([1]; 0.1 µg per injection s.c. daily for 10 days, 5-point scale): 2.86* points; mean concentration of zinc in the prostate tissue ([1]; after application of the tetrapeptide (Figure 2)): decreased; Number of rats in the group Prostatitis -affected ([1]; of 11 rats in total, 0.1 µg per injection s.c. daily for 10 days): 7; Diene conjugates ([2]; Blood serum): 5.28 ± 0.33 nmol/mL; Glutathione peroxidase ([2]; Blood serum): 2.85 ± 0.06 mmol of GlSH/min/mg of protein; Schiff's bases ([2]; Blood serum): 17.40 ± 1.54 conv. unit/ml; Superoxide dismutase ([2]; Blood serum): 0.826 ± 0.060 conv. unit/mg of protein; Diene conjugates ([2]; Brain): 46.14 ± 2.91 mnol/ml; Glutathione peroxidase ([2]; Brain): 50.7±0.2 mmole of GlSH/min/mg of protein; Schiff's bases ([2]; Brain): 237.3 ± 17.8 conv. unit/ml; Superoxide dismutase ([2]; Brain): 26.7 ± 3.0 conv. unit/mg of protein; Diene conjugates ([2]; Liver): 44.76 ± 2.48 nmol/mL; Glutathione peroxidase ([2]; Liver): 798.0±29.1 mmol of GlSH/min/mg of protein; Schiff's bases ([2]; Liver): 556.5 ±37.6 conv. unit/ml; Superoxide dismutase ([2]; Liver): 54.1 ± 7.9 conv. unit/mg of protein; increase in the explant SI as compared to the control value [3]: 23%
